Source: patent publication US20130190237A1, “METHODS FOR CATEGORISING CANCER SUCH AS BREAST CANCER” (IMPERIAL INNOVATIONS LIMITED, priority 2010, published 2013)
Residues, ends and D or L forms follow the SMILES beside them. *: point of attachment. Cbz = O=C(OCc1ccccc1)*

Legend:
[1] = test system: ERα protein in MCF7 cells; assay: Western blotting of ERα protein levels; assay type: cell-based, human; conditions: for ERα protein levels under LMTK3 silencing with co-treatment: MCF7, LMTK3 siRNA plus compound
Method: (A) MCF7 cells (1×10^6) were plated in 10 cm^2 plates in phenol red-free DMEM containing 10% DSS. The following day, cells were transfected with 20 nM CT siRNA or LMTK3 siRNA for 72 h and then treated or not (ET-OH) with E2 (10 nM) for 24 h. Cells were harvested, lysed and equal protein amounts were subjected to Western Blotting analysis using the indicated antibodies. β-actin was used as a control for sample loading. (B) Quantitative analysis of ERα and LMTK3 protein levels is given as fold of control. […] (C) MCF7 cells (5×10^4) were plated in 24-well plates and transfected with 20 nM CT siRNA or LMTK3 siRNA for 48 h. Gene expression of ERα was measured by qRT-PCR.
(§1) Whole cell lysates were prepared using NP40 lysis buffer (50 mM Tris-HCl, pH 8.0, 150 mM NaCl, 10% (v/v) glycerol, 1% NP40, 5 mM dithiothreitol (DTT), 1 mM EDTA, 1 mM EGTA, 50 μM leupeptin and 30 μg/ml aprotinin). These extracts were then clarified by centrifugation at 15000 rpm for 15 min at 4° C. for western blotting. The bicinchoninic acid (BCA) protein assay (Pierce) was used to determine the protein concentration of the lysates. […] The membranes were then blocked in TBS containing 0.1% (v/v) Tween20 and 5% (w/v) non-fat milk for 1 h and subsequently probed overnight with different antibodies following extensive washing with TBS/Tween and incubation with HRP-conjugated goat anti-rabbit IgG or goat anti-mouse IgG (1:1000 dilution) for 45 mins. Enhanced chemiluminescence (ECL) detection then allowed detection of the immunocomplexes. The intensity of the bands were quantified using Image J software (NIH, Bethesda, Md.).
as §1, with “45 min.” for “45 mins.”, “the immuno-complexes.” for “the immunocomplexes.”, “bands was” for “bands were”

LMTK3 kinase domain = biological target: T1, LMTK3 kinase domain (Homo sapiens, UniProt Q96Q04); assay: LMTK3 inhibitor screening assay (CisBio KinEASE STK S1 kit, ratiometric fluorescent read-out); assay type: biochemical; conditions: for Average % Inhibition / Average pIC50: 10 nM LMTK3, 1 μM S1 peptide, ATP 10 μM; for Average pIC50: 120 mins at 37° C., N=5
T1 construct: GST (N); made in house; host or cells: insect cells
T1 sequence (Q96Q04 133-415): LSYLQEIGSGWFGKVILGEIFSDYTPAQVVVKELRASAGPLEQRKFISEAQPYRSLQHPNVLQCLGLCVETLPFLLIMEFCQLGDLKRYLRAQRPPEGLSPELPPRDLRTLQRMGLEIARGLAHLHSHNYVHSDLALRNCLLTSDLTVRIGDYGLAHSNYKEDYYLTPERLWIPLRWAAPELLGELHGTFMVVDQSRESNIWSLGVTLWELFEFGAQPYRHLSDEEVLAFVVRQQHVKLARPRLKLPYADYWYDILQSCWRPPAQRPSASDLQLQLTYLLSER
Method: This exemplary assay has been developed to find inhibitors of LMTK3. The LMTK3 kinase domain (amino acids 133-415 of the full length kinase sequence, with an N-terminal GST tag) was expressed in insect cells and isolated via the GST N-terminal epitope.
Kinase reactions are set up in the presence of 1% DMSO with ATP added at around KM (=10 μM). Kinase activity is monitored using the CisBio KinEASE STK S1 kit using a ratiometric fluorescent read-out at 665 and 620 nm. The assay uses 10 nM LMTK3, 1 μM S1 peptide, 10 mM MgCl2 in the manufacturer buffer with extension of reaction time to 120 mins at 37° C.
Screening was performed in 384 low volume black microtitre plates with a final volume of 20 μl. The reaction was stopped with the addition of EDTA and detection reagents and fluorescence read on Pherastar. Data was normalised to the high control as specified by no inhibition and the low controls, equating to no activity (absence of ATP). Inhibitor activity was determined using concentration response curves, and using a four parameter fit to identify pIC50 values. Assay robustness was calculated using Z prime.

[2] = test system: Tamoxifen resistant cell lines (LCC9, MLET5, BT-474); assay: WST-1 cell proliferation assay in tamoxifen resistant cell lines; assay type: cell-based; conditions: 20 nM siRNA, Tamoxifen 100 nM
Method: Tamoxifen resistant cell lines (LCC9, MLET5, BT-474) were transfected with 20 nM of control siRNA or LMTK3 siRNA in the presence or absence of Tamoxifen (100 nM). Cells were subjected to the WST-1 cell proliferation assay, on the day of transfection (day 0) and then consecutive 48 h intervals. Absorbance was measured at 460 nm. Results represent the mean of three experiments per cell line ±SE.
FIG. 28 Effects of LMTK3 silencing in tamoxifen-resistant cell lines. (a) BT-474, (b) MLET5 and, (c) LCC9 cells were transfected with LMTK3 siRNA in the presence or absence of tamoxifen (100 nM). Comparisons are shown amongst: i) siControl-transfected and tamoxifen treated cells (*), ii) siControl- and siLMTK3-transfected cells ($) and iii) tamoxifen treated and siLMTK3-transfected cells (p<0.05—Student's t test). Western blotting of AIB1 and p-ERα S118 protein expression levels are shown.
The colorimetric Rapid Cell Proliferation kit (Calbiochem, UK) was used. The assay is based on the incubation of cells with the tatrazolium salt WST-1, which is cleaved by mitochondrial dehydrogenases, functional only in viable cells. […] The following day, cells were incubated with the WST-1 for 30 min at 37° C., according to manufacturer's instructions, and the absorbance read with the microplate reader at 460 nm was considered to be Day 0. […] Readings were repeated consecutively in 48 h intervals. […]

LMTK3 gene expression = LMTK3 gene expression after E2 or tamoxifen; assay type: cell-based
Method: Total RNA was isolated using the RNeasy kit (Qiagen). Reverse transcription was performed using high capacity cDNA reverse transcription kit (Applied Biosystems). RT-qPCR analysis was performed on a 7900HT Thermocycler (Applied Biosystems) using TaqMan mastermix and primers for TFF1, PGR, GREB1, FOXO3, FOXM1, LMTK1, LMTK2, LMTK3, MCL1 and GAPDH cDNAs, purchased from Applied Biosystems.

C[C@]12CC[C@@H]3c4ccc(O)cc4CC[C@H]3[C@@H]1CC[C@@H]2O [E2, Estradiol]
decrease of ERα protein levels ([1]; MCF7, E2 10 nM 24 h or 20 nM siRNA 72 h): ~40%

CN(C)CCCn1cc(C2=C(c3c[nH]c4ccccc34)C(=O)NC2=O)c2ccccc21 [GF109203X]
Average % Inhibition (LMTK3 kinase domain): 107.89% | Average pIC50 (LMTK3 kinase domain): 9.88

COc1ccc2c(c1)c(C1=C(c3c[nH]c4ccccc34)C(=O)NC1=O)cn2CCCN(C)C [Go 6983]
ERα protein levels under LMTK3 silencing with co-treatment [1]: partly rescues the LMTK3 siRNA-induced down-regulation of ERα

COC(=O)[C@@]1(O)C[C@H]2O[C@]1(C)n1c3ccccc3c3c4c(c5c6ccccc6n2c5c31)C(=O)NC4 [K-252a]
IC50 (LMTK3 kinase domain): 79.4 nM | Average % Inhibition (LMTK3 kinase domain): 98.91%

CCCCCCOC(=O)[C@]1(O)C[C@@H]2O[C@@]1(C)n1c3ccccc3c3c4c(c5c6ccccc6n2c5c31)C(=O)NC4 [KT5720]
Average % Inhibition (LMTK3 kinase domain): 98.65% | Average pIC50 (LMTK3 kinase domain): 9.93

CC(C)C[C@@H](C=O)NC(=O)[C@H](CC(C)C)NC(=O)[C@H](CC(C)C)NC(=O)OCc1ccccc1 [MG132] (Cbz-Leu-Leu-Leu-aldehyde)
ERα protein levels under LMTK3 silencing with co-treatment [1]: partly rescued ERα degradation

CCCCCCCCCCCCCC(=O)O[C@@H]1[C@@H](C)[C@@]2(O)[C@@H](C=C(CO)C[C@]3(O)C(=O)C(C)=C[C@@H]23)[C@@H]2C(C)(C)[C@]12OC(C)=O [PMA]
ERα protein levels under LMTK3 silencing with co-treatment [1]: further degrades ERα

CN[C@@H]1C[C@H]2O[C@@](C)([C@@H]1OC)n1c3ccccc3c3c4c(c5c6ccccc6n2c5c31)C(=O)NC4 [Staurosporine]
IC50 (LMTK3 kinase domain): 0.0024 nM | Average % Inhibition (LMTK3 kinase domain): 108.86%

CC/C(=C(\c1ccccc1)c1ccc(OCCN(C)C)cc1)c1ccccc1 [Tamoxifen]
effect on growth of tamoxifen-resistant cell lines [2]: slightly affected basal cell growth | increase of ERα protein levels ([1]; MCF7, Tam 100 nM 24 h): ~50% | LMTK3 expression (LMTK3 gene expression): up-regulated
